The target in this assay is Cyclin-dependent kinase 5/CDK5 activator 1 (Homo sapiens, UniProt Q00535). It is filed as protein-complex assay.
Chain of Cyclin-dependent kinase 5/CDK5 activator 1 (Q00535 whole entry): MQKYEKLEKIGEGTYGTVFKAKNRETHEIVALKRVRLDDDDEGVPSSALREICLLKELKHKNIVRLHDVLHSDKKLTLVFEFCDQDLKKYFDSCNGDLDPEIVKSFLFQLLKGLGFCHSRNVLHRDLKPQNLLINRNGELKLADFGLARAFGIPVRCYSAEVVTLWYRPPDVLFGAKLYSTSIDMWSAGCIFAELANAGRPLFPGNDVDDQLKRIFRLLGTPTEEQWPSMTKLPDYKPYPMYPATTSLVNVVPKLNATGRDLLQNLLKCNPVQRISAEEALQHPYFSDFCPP
Chain of Cyclin-dependent kinase 5/CDK5 activator 1 (Q15078 whole entry, further chain): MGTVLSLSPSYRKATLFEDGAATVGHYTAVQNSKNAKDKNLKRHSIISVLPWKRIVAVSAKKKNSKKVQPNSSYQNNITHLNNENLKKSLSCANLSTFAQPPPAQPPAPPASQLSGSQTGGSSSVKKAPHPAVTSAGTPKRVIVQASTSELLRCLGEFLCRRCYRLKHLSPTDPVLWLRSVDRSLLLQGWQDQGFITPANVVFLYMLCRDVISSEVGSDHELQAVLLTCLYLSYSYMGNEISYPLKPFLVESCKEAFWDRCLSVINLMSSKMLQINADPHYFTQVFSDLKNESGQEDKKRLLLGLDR

With `N#CCSc1nnc(Cc2c(NC(=O)c3ccccc3)sc3c2CCCC3)n1NC(=O)c1ccccc1`, the concentration for half-maximal inhibition (IC50) turned out to be 486 nM.

Take `CC(=O)Nc1sc2c(c1Cc1nnc(SCSc3nnc(Cc4c(NC(C)=O)sc5c4CCCC5)n3NC(=O)c3ccc(Cl)cc3)n1NC(=O)c1ccc(Cl)cc1)CCCC2`: it took 367 nM to reach half-maximal inhibition (IC50). Consider `NNC(=O)CSc1nnc(Cc2c(NCCC(=O)O)sc3c2CCCC3)n1NC(=O)c1ccc(Cl)cc1`, for which the IC50 stood at 201 nM. Then `O=C(CSc1nnc(Cc2c(NC(=O)c3ccccc3)sc3c2CCCC3)n1NC(=O)c1ccc(Cl)cc1)N/N=C/c1ccccc1`, with 217 nM; and `N#CCSc1nnc(Cc2c(NCCC(=O)O)sc3c2CCCC3)n1NC(=O)c1ccc(Cl)cc1`, with 422 nM; and `CC(=O)Nn1c(Cc2c(NC(=O)c3ccccc3)sc3c2CCCC3)nnc1SCC(=O)NNC(=O)CCl`, with 358 nM. Compound `COC(=O)CSc1nnc(Cc2c(NC(=O)c3ccccc3)sc3c2CCCC3)n1NC(=O)c1ccc(Cl)cc1` yielded an IC50 of 293 nM. Next, `CC(=O)NNC(=O)CSc1nnc(Cc2c(NC(=O)c3ccccc3)sc3c2CCCC3)n1NC(=O)c1ccc(Cl)cc1`: 318 nM.

`O=C(O)CCNc1sc2c(c1Cc1nnc(SCC(=O)NNC(=O)CCl)n1NC(=O)c1ccc(Cl)cc1)CCCC2` gave an IC50 of 185 nM. As to `O=C(Nc1sc2c(c1Cc1nnc(SCSc3nnc(Cc4c(NC(=O)c5ccccc5)sc5c4CCCC5)n3NC(=O)c3ccc(Cl)cc3)n1NC(=O)c1ccc(Cl)cc1)CCCC2)c1ccccc1`, half-maximal inhibition (IC50) was put at 627 nM. Then `CC(=O)Nc1sc2c(c1Cc1nnc(SCC(=O)NNC(=O)CCl)n1NC(=O)c1ccccc1)CCCC2`, with 643 nM; and `CC(=O)NNC(=O)CSc1nnc(Cc2c(NC(=O)c3ccccc3)sc3c2CCCC3)n1NC(=O)c1ccccc1`, with 564 nM. Then `O=C(O)CCNc1sc2c(c1Cc1nnc(SCSc3nnc(Cc4c(NCCC(=O)O)sc5c4CCCC5)n3NC(=O)c3ccccc3)n1NC(=O)c1ccccc1)CCCC2`, with 577 nM; and `CC(=O)Nc1sc2c(c1Cc1nnc(SCc3n[nH]c(=S)n3N)n1NC(=O)c1ccccc1)CCCC2`, with 6440 nM.

`CC(=O)Nn1c(Cc2c(NCCC(=O)O)sc3c2CCCC3)nnc1SCC(=O)NNC(=O)CCl` displayed an IC50 of 265 nM. Next, `CC(=O)NNC(=O)CSc1nnc(Cc2c(NC(C)=O)sc3c2CCCC3)n1NC(=O)c1ccccc1`: 548 nM. `O=C(CSc1nnc(Cc2c(NC(=O)c3ccccc3)sc3c2CCCC3)n1NC(=O)c1ccccc1)NNC(=O)c1ccccc1` yielded an IC50 of 466 nM.

`COC(=O)CSc1nnc(Cc2c(NC(C)=O)sc3c2CCCC3)n1NC(=O)c1ccc(Cl)cc1` gave an IC50 of 389 nM. Consider `CC(=O)NNC(=O)CSc1nnc(Cc2c(NCCC(=O)O)sc3c2CCCC3)n1NC(C)=O`, for which half-maximal inhibition (IC50) was put at 366 nM. Compound `CC(=O)Nc1sc2c(c1Cc1nnc(SCC(=O)N/N=C/c3ccccc3)n1NC(=O)c1ccc(Cl)cc1)CCCC2` gave an IC50 of 213 nM.

As for `CC(=O)Nc1sc2c(c1Cc1nnc(SCSc3nnc(Cc4c(NC(C)=O)sc5c4CCCC5)n3NC(C)=O)n1NC(C)=O)CCCC2`, the IC50 amounted to 839 nM. Next, `O=C(O)CCNc1sc2c(c1Cc1nnc(S)n1NC(=O)c1ccc(Cl)cc1)CCCC2`: 457 nM; `CC(=O)Nc1sc2c(c1Cc1nnc(SCC(=O)NNC(=O)c3ccccc3)n1NC(C)=O)CCCC2`: 436 nM; `Nn1c(S)nnc1CSc1nnc(Cc2c(NCCC(=O)O)sc3c2CCCC3)n1NC(=O)c1ccc(Cl)cc1`: 5850 nM. In turn, `CC(=O)Nn1c(Cc2c(NCCC(=O)O)sc3c2CCCC3)nnc1SCC(=O)NNC(=O)c1ccccc1` displayed a concentration for half-maximal inhibition (IC50) of 476 nM. Consider `CC(=O)Nn1c(Cc2c(NCCC(=O)O)sc3c2CCCC3)nnc1SCSc1nnc(Cc2c(NCCC(=O)O)sc3c2CCCC3)n1NC(C)=O`, for which the IC50 was determined as 734 nM. Then `CC(=O)Nn1c(Cc2c(NCCC(=O)O)sc3c2CCCC3)n[nH]c1=S`, with 433 nM. For the compound `CC(=O)Nc1sc2c(c1Cc1nnc(SCC#N)n1NC(=O)c1ccccc1)CCCC2`, the IC50 was 393 nM. Next, `CC(=O)Nc1sc2c(c1Cc1nnc(SCC#N)n1NC(C)=O)CCCC2`: 458 nM; `O=C(O)CCNc1sc2c(c1Cc1nnc(SCC(=O)N/N=C/c3ccccc3)n1NC(=O)c1ccccc1)CCCC2`: 267 nM. For `CC(=O)Nc1sc2c(c1Cc1nnc(SCC(=O)N/N=C/c3ccccc3)n1NC(=O)c1ccccc1)CCCC2`, the IC50 was found to be 385 nM.

`O=C(O)CCNc1sc2c(c1Cc1nnc(SCC(=O)NNC(=O)c3ccccc3)n1NC(=O)c1ccc(Cl)cc1)CCCC2` returned an IC50 of 271 nM. Next, `NNC(=O)CSc1nnc(Cc2c(NCCC(=O)O)sc3c2CCCC3)n1NC(=O)c1ccccc1`: 455 nM; `CC(=O)Nn1c(Cc2c(NC(=O)c3ccccc3)sc3c2CCCC3)nnc1SCC(=O)N/N=C/c1ccccc1`: 467 nM; `O=C(O)CCNc1sc2c(c1Cc1nnc(SCSc3nnc(Cc4c(NCCC(=O)O)sc5c4CCCC5)n3NC(=O)c3ccc(Cl)cc3)n1NC(=O)c1ccc(Cl)cc1)CCCC2`: 164 nM. Then `N#CCSc1nnc(Cc2c(NC(=O)c3ccccc3)sc3c2CCCC3)n1NC(=O)c1ccc(Cl)cc1`, with 551 nM; and `N#CCSc1nnc(Cc2c(NCCC(=O)O)sc3c2CCCC3)n1NC(=O)c1ccccc1`, with 4870 nM. Then `CC(=O)NNC(=O)CSc1nnc(Cc2c(NC(=O)c3ccccc3)sc3c2CCCC3)n1NC(C)=O`, with 639 nM; and `CC(=O)Nc1sc2c(c1Cc1nnc(SCC(=O)N/N=C/c3ccccc3)n1NC(C)=O)CCCC2`, with 453 nM; and `CC(=O)Nn1c(Cc2c(NCCC(=O)O)sc3c2CCCC3)nnc1SCC(=O)N/N=C/c1ccccc1`, with 535 nM. `CC(=O)Nn1c(S)nnc1Cc1c(NC(=O)c2ccccc2)sc2c1CCCC2` displayed an IC50 of 618 nM. For `CC(=O)Nc1sc2c(c1Cc1n[nH]c(=S)n1NC(=O)c1ccc(Cl)cc1)CCCC2`, the half-inhibitory concentration (IC50) came to 460 nM. For the compound `CC(=O)Nc1sc2c(c1Cc1nnc(SCC(=O)NNC(=O)CCl)n1NC(C)=O)CCCC2`, half-maximal inhibition (IC50) was put at 474 nM.

As for `CC(=O)Nn1c(Cc2c(NCCC(=O)O)sc3c2CCCC3)nnc1SCc1nnc(S)n1N`, the IC50 turned out to be 6210 nM. Next, `CC(=O)Nc1sc2c(c1Cc1nnc(SCc3n[nH]c(=S)n3N)n1NC(C)=O)CCCC2`: 5150 nM. Next, `CC(=O)Nn1c(Cc2c(NC(=O)c3ccccc3)sc3c2CCCC3)nnc1SCC(=O)NN`: 180 nM; `Nn1c(S)nnc1CSc1nnc(Cc2c(NC(=O)c3ccccc3)sc3c2CCCC3)n1NC(=O)c1ccc(Cl)cc1`: 3280 nM. Compound `O=C(O)CCNc1sc2c(c1Cc1nnc(SCC(=O)NNC(=O)CCl)n1NC(=O)c1ccccc1)CCCC2` showed an IC50 of 362 nM.

In the case of `CC(=O)Nn1c(Cc2c(NCCC(=O)O)sc3c2CCCC3)nnc1SCC(=O)NN`, the IC50 came out at 931 nM. `CC(=O)NNC(=O)CSc1nnc(Cc2c(NC(C)=O)sc3c2CCCC3)n1NC(=O)c1ccc(Cl)cc1` gave an IC50 of 641 nM.

`CC(=O)Nn1c(Cc2c(NCCC(=O)O)sc3c2CCCC3)nnc1SCC#N` showed an IC50 of 641 nM. Next, `CC(=O)Nn1c(Cc2c(NC(=O)c3ccccc3)sc3c2CCCC3)nnc1SCc1nnc(S)n1N`: 6140 nM; `CC(=O)Nn1c(Cc2c(NC(=O)c3ccccc3)sc3c2CCCC3)nnc1SCSc1nnc(Cc2c(NC(=O)c3ccccc3)sc3c2CCCC3)n1NC(C)=O`: 766 nM. `O=C(CSc1nnc(Cc2c(NC(=O)c3ccccc3)sc3c2CCCC3)n1NC(=O)c1ccccc1)N/N=C/c1ccccc1`: half-maximal inhibition (IC50) was put at 435 nM. In turn, `CC(=O)Nc1sc2c(c1Cc1nnc(SCc3nnc(S)n3N)n1NC(=O)c1ccc(Cl)cc1)CCCC2` came in with an IC50 of 6380 nM.

`O=C(O)CCNc1sc2c(c1Cc1nnc(SCC(=O)NNC(=O)c3ccccc3)n1NC(=O)c1ccccc1)CCCC2` returned a half-inhibitory concentration (IC50) of 434 nM. Take `CC(=O)Nc1sc2c(c1Cc1nnc(SCC#N)n1NC(=O)c1ccc(Cl)cc1)CCCC2`: 415 nM corresponded to half-maximal inhibition (IC50). With `O=C(Nc1sc2c(c1Cc1nnc(S)n1NC(=O)c1ccccc1)CCCC2)c1ccccc1`, half-maximal inhibition (IC50) was put at 891 nM. Next, `CC(=O)Nc1sc2c(c1Cc1nnc(SCC(=O)NNC(=O)c3ccccc3)n1NC(=O)c1ccc(Cl)cc1)CCCC2`: 525 nM; `CC(=O)Nc1sc2c(c1Cc1nnc(S)n1NC(C)=O)CCCC2`: 584 nM; `O=C(O)CCNc1sc2c(c1Cc1n[nH]c(=S)n1NC(=O)c1ccccc1)CCCC2`: 674 nM. Then `CC(=O)Nc1sc2c(c1Cc1nnc(SCC(=O)NN)n1NC(C)=O)CCCC2`, with 249 nM; and `O=C(Nc1sc2c(c1Cc1nnc(SCSc3nnc(Cc4c(NC(=O)c5ccccc5)sc5c4CCCC5)n3NC(=O)c3ccccc3)n1NC(=O)c1ccccc1)CCCC2)c1ccccc1`, with 695 nM; and `COC(=O)CSc1nnc(Cc2c(NC(C)=O)sc3c2CCCC3)n1NC(=O)c1ccccc1`, with 578 nM. `O=C(Nc1sc2c(c1Cc1nnc(S)n1NC(=O)c1ccc(Cl)cc1)CCCC2)c1ccccc1`: the IC50 was 183 nM. Then `O=C(CCl)NNC(=O)CSc1nnc(Cc2c(NC(=O)c3ccccc3)sc3c2CCCC3)n1NC(=O)c1ccc(Cl)cc1`, with 340 nM. `COC(=O)CSc1nnc(Cc2c(NCCC(=O)O)sc3c2CCCC3)n1NC(=O)c1ccc(Cl)cc1` displayed an IC50 of 541 nM. The compound `O=C(O)CCNc1sc2c(c1Cc1nnc(SCC(=O)N/N=C/c3ccccc3)n1NC(=O)c1ccc(Cl)cc1)CCCC2` registered an IC50 of 258 nM. Consider `CC(=O)Nc1sc2c(c1Cc1nnc(SCSc3nnc(Cc4c(NC(C)=O)sc5c4CCCC5)n3NC(=O)c3ccccc3)n1NC(=O)c1ccccc1)CCCC2`, for which half-maximal inhibition (IC50) was put at 646 nM. Then `NNC(=O)CSc1nnc(Cc2c(NC(=O)c3ccccc3)sc3c2CCCC3)n1NC(=O)c1ccccc1`, with 264 nM; and `COC(=O)CSc1nnc(Cc2c(NC(=O)c3ccccc3)sc3c2CCCC3)n1NC(=O)c1ccccc1`, with 353 nM.

`COC(=O)CSc1nnc(Cc2c(NCCC(=O)O)sc3c2CCCC3)n1NC(=O)c1ccccc1` had an IC50 of 641 nM.

`O=C(CCl)NNC(=O)CSc1nnc(Cc2c(NC(=O)c3ccccc3)sc3c2CCCC3)n1NC(=O)c1ccccc1` displayed an IC50 of 547 nM.

`CC(=O)Nn1c(Cc2c(NC(=O)c3ccccc3)sc3c2CCCC3)nnc1SCC#N` yielded an IC50 of 564 nM.

As for `Nn1c(CSc2nnc(Cc3c(NCCC(=O)O)sc4c3CCCC4)n2NC(=O)c2ccccc2)n[nH]c1=S`, inhibition was half-maximal at 4990 nM (IC50).

The values are drawn from ChEMBL document CHEMBL1795325, “Studying synergism of methyl linked cyclohexyl thiophenes with triazole: synthesis and their cdk5/p25 inhibition activity” (Eur J Med Chem, 2011).
